Assay results from ChEMBL document CHEMBL5543142, “Discovery of YFJ-36: Design, Synthesis, and Antibacterial Activities of Catechol-Conjugated β-Lactams against Gram-Negative Bacteria” (J Med Chem, 2024).
pIC50: −log10 of the molar value.

Legend:
Escherichia coli [1] = assay: Antibacterial activity against ESBL-producing multidrug-resistant Escherichia coli clinical isolate 14-4 assessed as inhibition of bacterial growth incubated for 18 to 20 hrs by two fold serial dilution assay; type: functional; details: time 18-20 hrs
Escherichia coli [2] = assay: Antibacterial activity against ESBL-producing multidrug-resistant Escherichia coli clinical isolate 14-2 assessed as inhibition of bacterial growth incubated for 18 to 20 hrs by two fold serial dilution assay; type: functional; details: time 18-20 hrs
Klebsiella pneumoniae [3] = assay: Antibacterial activity against KPC-2 producing multidrug-resistant Klebsiella pneumoniae clinical isolate 15-1 assessed as inhibition of bacterial growth incubated for 18 to 20 hrs by two fold serial dilution assay; type: functional; details: time 18-20 hrs
hERG (KCNH2) = hERG (KCNH2) (Homo sapiens, UniProt Q12809); assay: Inhibition of hERG at 40 uM by whole cell Qpatch assay relative to control; type: toxicity
[4] = AUC (0 to infinity) in ICR mouse at 20 mg/kg,iv administration measured upto 6 hrs by LC-MS/MS analysis; type: ADME, organism-based; details: in vivo
[5] = molecular target: Voltage-gated inwardly rectifying potassium channel KCNH2 (Homo sapiens, UniProt Q12809); assay: Inhibition of hERG by whole cell Qpatch assay; type: toxicity
[6] = Volume of distribution at steady state in ICR mouse at 20 mg/kg,iv administration measured upto 6 hrs by LC-MS/MS analysis; type: ADME, organism-based; details: in vivo, read-out: Vdss
Acinetobacter baumannii [7] = assay: Antibacterial activity against OXA-23 producing multidrug-resistant Acinetobacter baumannii clinical isolate 17-5 assessed as inhibition of bacterial growth incubated for 18 to 20 hrs by two fold serial dilution assay; type: functional; details: time 18-20 hrs
Pseudomonas aeruginosa [8] = assay: Antibacterial activity against IMP-4 producing multidrug-resistant Pseudomonas aeruginosa clinical isolate 17-1 assessed as inhibition of bacterial growth incubated for 18 to 20 hrs by two fold serial dilution assay; type: functional; details: time 18-20 hrs
Acinetobacter baumannii [9] = assay: Antibacterial activity against OXA-23 producing multidrug-resistant Acinetobacter baumannii clinical isolate 17-3 assessed as inhibition of bacterial growth incubated for 18 to 20 hrs by two fold serial dilution assay; type: functional; details: time 18-20 hrs
Escherichia coli [10] = assay: Antibacterial activity against Escherichia coli ATCC-35218 assessed as inhibition of bacterial growth incubated for 18 to 20 hrs in presence of iron-depleted CAMHB medium by two fold serial dilution assay; type: functional; details: time 18-20 hrs
[11] = Plasma protein binding in mouse incubated for 35 mins by LC-MS/MS analysis; type: ADME, cell-free; details: read-out: PPB (converted)
[12] = MRT in ICR mouse at 20 mg/kg,iv administration measured upto 6 hrs by LC-MS/MS analysis; type: ADME, organism-based; details: in vivo
Acinetobacter baumannii [13] = assay: Antibacterial activity against OXA-23 producing multidrug-resistant Acinetobacter baumannii clinical isolate 17-6 assessed as inhibition of bacterial growth incubated for 18 to 20 hrs by two fold serial dilution assay; type: functional; details: time 18-20 hrs
Klebsiella pneumoniae [14] = assay: Antibacterial activity against KPC-2 producing multidrug-resistant Klebsiella pneumoniae clinical isolate 15-2 assessed as inhibition of bacterial growth incubated for 18 to 20 hrs by two fold serial dilution assay; type: functional; details: time 18-20 hrs
Escherichia coli [15] = assay: Antibacterial activity against Escherichia coli ATCC-35218 assessed as inhibition of bacterial growth incubated for 18 to 20 hrs in presence of CAMHB medium by two fold serial dilution assay; type: functional; details: time 18-20 hrs
Klebsiella pneumoniae [16] = assay: Antibacterial activity against KPC-2 producing multidrug-resistant Klebsiella pneumoniae clinical isolate 15-5 assessed as inhibition of bacterial growth incubated for 18 to 20 hrs by two fold serial dilution assay; type: functional; details: time 18-20 hrs
Acinetobacter baumannii [17] = assay: Antibacterial activity against OXA-23 producing multidrug-resistant Acinetobacter baumannii clinical isolate 17-7 assessed as inhibition of bacterial growth incubated for 18 to 20 hrs by two fold serial dilution assay; type: functional; details: time 18-20 hrs
Escherichia coli [18] = assay: Antibacterial activity against ESBL-producing multidrug-resistant Escherichia coli clinical isolate 14-1 assessed as inhibition of bacterial growth incubated for 18 to 20 hrs by two fold serial dilution assay; type: functional; details: time 18-20 hrs
Acinetobacter baumannii [19] = assay: Antibacterial activity against OXA-23 producing multidrug-resistant Acinetobacter baumannii clinical isolate 17-2 assessed as inhibition of bacterial growth incubated for 18 to 20 hrs by two fold serial dilution assay; type: functional; details: time 18-20 hrs
[20] = Clearance in ICR mouse at 20 mg/kg,iv administration measured upto 6 hrs by LC-MS/MS analysis; type: ADME, organism-based; details: in vivo
Pseudomonas aeruginosa [21] = assay: Antibacterial activity against IMP-4 producing multidrug-resistant Pseudomonas aeruginosa clinical isolate 19-17 assessed as inhibition of bacterial growth incubated for 18 to 20 hrs by two fold serial dilution assay; type: functional; details: time 18-20 hrs
Pseudomonas aeruginosa [22] = assay: Antibacterial activity against IMP-4 producing multidrug-resistant Pseudomonas aeruginosa clinical isolate 17-13 assessed as inhibition of bacterial growth incubated for 18 to 20 hrs by two fold serial dilution assay; type: functional; details: time 18-20 hrs
Escherichia coli [23] = assay: Antibacterial activity against Escherichia coli ATCC35218 assessed as inhibition of bacterial growth incubated for 18 to 20 hrs by two fold serial dilution assay; type: functional; details: time 18-20 hrs
[24] = Half life in ICR mouse at 20 mg/kg,iv administration measured upto 6 hrs by LC-MS/MS analysis; type: ADME, organism-based; details: in vivo
Pseudomonas aeruginosa [25] = assay: Antibacterial activity against IMP-4 producing multidrug-resistant Pseudomonas aeruginosa clinical isolate 19-5 assessed as inhibition of bacterial growth incubated for 18 to 20 hrs by two fold serial dilution assay; type: functional; details: time 18-20 hrs
Escherichia coli [26] = assay: Antibacterial activity against Escherichia coli NCTC-13353 assessed as inhibition of bacterial growth incubated for 18 to 20 hrs in presence of iron-depleted CAMHB medium by two fold serial dilution assay; type: functional; details: time 18-20 hrs
Pseudomonas aeruginosa [27] = assay: Antibacterial activity against IMP-4 producing multidrug-resistant Pseudomonas aeruginosa clinical isolate 19-1 assessed as inhibition of bacterial growth incubated for 18 to 20 hrs by two fold serial dilution assay; type: functional; details: time 18-20 hrs
Escherichia coli [28] = assay: Antibacterial activity against Escherichia coli NCTC-13353 assessed as inhibition of bacterial growth incubated for 18 to 20 hrs in presence of CAMHB medium by two fold serial dilution assay; type: functional; details: time 18-20 hrs
Klebsiella pneumoniae [29] = assay: Antibacterial activity against Klebsiella pneumoniae ATCC BAA-1898 assessed as inhibition of bacterial growth incubated for 18 to 20 hrs in presence of CAMHB medium by two fold serial dilution assay; type: functional; details: time 18-20 hrs
Klebsiella pneumoniae [30] = assay: Antibacterial activity against Klebsiella pneumoniae ATCC BAA-1898 assessed as inhibition of bacterial growth incubated for 18 to 20 hrs in presence of iron-depleted CAMHB medium by two fold serial dilution assay; type: functional; details: time 18-20 hrs
Klebsiella pneumoniae [31] = assay: Antibacterial activity against KPC-2 producing multidrug-resistant Klebsiella pneumoniae clinical isolate 15-3 assessed as inhibition of bacterial growth incubated for 18 to 20 hrs by two fold serial dilution assay; type: functional; details: time 18-20 hrs
Acinetobacter baumannii [32] = assay: Antibacterial activity against OXA-23 producing multidrug-resistant Acinetobacter baumannii clinical isolate 17-8 assessed as inhibition of bacterial growth incubated for 18 to 20 hrs by two fold serial dilution assay; type: functional; details: time 18-20 hrs
Acinetobacter baumannii [33] = assay: Antibacterial activity against OXA-23 producing multidrug-resistant Acinetobacter baumannii clinical isolate 15-2 assessed as inhibition of bacterial growth incubated for 18 to 20 hrs by two fold serial dilution assay; type: functional; details: time 18-20 hrs
Acinetobacter baumannii [34] = assay: Antibacterial activity against OXA-23 producing multidrug-resistant Acinetobacter baumannii clinical isolate 15-5 assessed as inhibition of bacterial growth incubated for 18 to 20 hrs by two fold serial dilution assay; type: functional; details: time 18-20 hrs
Acinetobacter baumannii [35] = assay: Antibacterial activity against OXA-23 producing multidrug-resistant Acinetobacter baumannii clinical isolate 15-3 assessed as inhibition of bacterial growth incubated for 18 to 20 hrs by two fold serial dilution assay; type: functional; details: time 18-20 hrs
Acinetobacter baumannii [36] = assay: Antibacterial activity against OXA-23 producing multidrug-resistant Acinetobacter baumannii clinical isolate 15-1 assessed as inhibition of bacterial growth incubated for 18 to 20 hrs by two fold serial dilution assay; type: functional; details: time 18-20 hrs
Acinetobacter baumannii [37] = assay: Antibacterial activity against OXA-23 producing multidrug-resistant Acinetobacter baumannii clinical isolate 15-4 assessed as inhibition of bacterial growth incubated for 18 to 20 hrs by two fold serial dilution assay; type: functional; details: time 18-20 hrs

Voltage-gated inwardly rectifying potassium channel KCNH2, sequence (Q12809 whole entry): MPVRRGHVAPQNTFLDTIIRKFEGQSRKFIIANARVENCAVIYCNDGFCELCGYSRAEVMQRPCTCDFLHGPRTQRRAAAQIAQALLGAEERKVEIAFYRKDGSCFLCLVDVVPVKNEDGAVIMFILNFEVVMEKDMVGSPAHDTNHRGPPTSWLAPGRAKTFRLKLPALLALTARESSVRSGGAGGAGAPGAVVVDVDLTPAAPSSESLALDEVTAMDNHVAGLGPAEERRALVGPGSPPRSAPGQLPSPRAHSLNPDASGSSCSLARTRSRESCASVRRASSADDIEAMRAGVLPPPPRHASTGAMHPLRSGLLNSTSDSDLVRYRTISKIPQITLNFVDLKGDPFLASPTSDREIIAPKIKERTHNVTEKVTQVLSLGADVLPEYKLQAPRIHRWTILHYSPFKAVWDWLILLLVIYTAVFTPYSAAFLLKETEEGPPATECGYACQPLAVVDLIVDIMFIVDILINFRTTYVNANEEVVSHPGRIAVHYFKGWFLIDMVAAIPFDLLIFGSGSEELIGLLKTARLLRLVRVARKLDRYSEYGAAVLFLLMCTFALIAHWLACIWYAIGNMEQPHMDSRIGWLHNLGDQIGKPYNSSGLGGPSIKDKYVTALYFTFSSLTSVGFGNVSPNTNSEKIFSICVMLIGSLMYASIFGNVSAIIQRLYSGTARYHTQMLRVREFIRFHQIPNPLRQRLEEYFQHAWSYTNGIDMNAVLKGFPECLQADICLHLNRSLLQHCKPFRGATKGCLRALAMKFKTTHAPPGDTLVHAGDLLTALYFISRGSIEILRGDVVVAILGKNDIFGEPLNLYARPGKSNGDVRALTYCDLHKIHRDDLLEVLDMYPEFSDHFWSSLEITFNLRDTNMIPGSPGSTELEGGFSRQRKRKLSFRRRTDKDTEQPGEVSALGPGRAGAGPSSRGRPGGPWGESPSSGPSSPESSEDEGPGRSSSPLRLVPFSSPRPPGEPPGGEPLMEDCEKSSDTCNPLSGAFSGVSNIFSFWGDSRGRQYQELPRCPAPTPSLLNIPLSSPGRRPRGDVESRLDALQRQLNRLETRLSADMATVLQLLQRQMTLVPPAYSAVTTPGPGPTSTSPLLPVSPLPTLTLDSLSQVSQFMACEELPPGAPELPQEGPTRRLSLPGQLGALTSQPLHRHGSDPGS
hERG (KCNH2), sequence (Q12809 whole entry): as above

Row | SMILES | MIC (Escherichia coli [1]) | MIC (Escherichia coli [2]) | MIC (Klebsiella pneumoniae [3]) | AUC(0-inf) [4] | Vd [6] | MIC (Acinetobacter baumannii [9]) | fraction unbound at 35 min [11] | MRT [12] | MIC (Klebsiella pneumoniae [14]) | MIC (Klebsiella pneumoniae [16]) | MIC (Escherichia coli [18]) | MIC (Acinetobacter baumannii [19]) | clearance [20] | MIC (Pseudomonas aeruginosa [21]) | MIC (Pseudomonas aeruginosa [22]) | MIC (Escherichia coli [23]) | half-life [24] | MIC (Pseudomonas aeruginosa [25]) | MIC (Pseudomonas aeruginosa [27]) | MIC (Klebsiella pneumoniae [31]) | other results
1 | C[C@@](O/N=C(\C(=O)N[C@@H]1C(=O)N2C(C(=O)O)=C(CSCCNC(=O)c3ccc(O)c(O)c3Cl)CS[C@H]12)c1nc(N)sc1Cl)(C(=O)O)C(F)(F)F.O=C(O)C(F)(F)F | ≤ 0.03 µg/mL | 0.5 µg/mL | 0.25 µg/mL | 968 ng·h/mL | 7.74 L/kg | 0.5 µg/mL | 0.066 | 18 min | 0.5 µg/mL | 0.125 µg/mL | 0.06 µg/mL | 0.06 µg/mL | 397 mL/min/kg | 0.06 µg/mL | 0.125 µg/mL | 0.06 µg/mL | 18 min | 0.25 µg/mL | 1 µg/mL | 0.5 µg/mL | inhibition at 40 µM (hERG (KCNH2)): 40.5%; pIC50 [5]: < 4.40; MIC (Acinetobacter baumannii [7]): 0.125 µg/mL; MIC (Pseudomonas aeruginosa [8]): 8 µg/mL; MIC (Escherichia coli [10]): ≤ 0.03 µg/mL; MIC (Acinetobacter baumannii [13]): 0.5 µg/mL; MIC (Escherichia coli [15]): 0.5 µg/mL; MIC (Acinetobacter baumannii [17]): 0.5 µg/mL; MIC (Escherichia coli [26]): 0.25 µg/mL; MIC (Escherichia coli [28]): 0.5 µg/mL; MIC (Klebsiella pneumoniae [29]): 16 µg/mL; MIC (Klebsiella pneumoniae [30]): 4 µg/mL; MIC (Acinetobacter baumannii [32]): 0.125 µg/mL
2 | Nc1nc(/C(=N/OC(C(=O)O)C2CCC(F)(F)CC2)C(=O)N[C@@H]2C(=O)N3C(C(=O)O)=C(CSCCNC(=O)c4ccc(O)c(O)c4Cl)CS[C@H]23)c(Cl)s1.O=C(O)C(F)(F)F (stereo partly drawn) | 0.5 µg/mL | 0.25 µg/mL | 0.5 µg/mL | 4740 ng·h/mL | 0.649 L/kg | 2 µg/mL | 0.031 | 10.8 min | 1 µg/mL | 1 µg/mL | 0.125 µg/mL | 0.25 µg/mL | 54.1 mL/min/kg | 0.125 µg/mL | 0.5 µg/mL | 0.125 µg/mL | 20.4 min | 0.5 µg/mL | 8 µg/mL | 0.5 µg/mL | MIC (Acinetobacter baumannii [33]): 1 µg/mL; MIC (Acinetobacter baumannii [34]): 4 µg/mL; MIC (Acinetobacter baumannii [35]): 4 µg/mL; MIC (Acinetobacter baumannii [36]): 4 µg/mL; MIC (Acinetobacter baumannii [37]): 8 µg/mL
